Literature values as cited in PMC7155743 (The journal of physical chemistry. B, 2019).
“Also recorded” adds a separate entry of the source.

How the values were obtained:
[1] = not given; remark: listed apart in the source
[2] = aqueous solution

solubility (qualitative) | appearance of peptide in water at 1 mg/mL [1] | Substance | aggregation state by DOSY [2] | fibrillization after incubation in water for 3 h (water, 3 h)
insoluble | – | K2Q9PGQ4AQ4PGQ9PGQ9K2 [PGQ9A] | – | –
– | clear solutions | D2Q10K2 [DQ10] | predominately monomeric; also recorded: predominantly monomeric | –
– | clear solutions | D2Q10K2 [NDQ10] | predominately monomeric; also recorded: predominantly monomeric | –
– | – | K2Q9PGQ4AQ4PGQ9PGQ9K2 [NDPGQ9A] | – | do not observe signs of NDPGQ9A fibrillization
